Test: Phase 1 study: safety and tolerability (TEAEs, NCI CTCAE v5.0)
Experimental: The study employed an open-label, 3+3 design, with the option of adding backfill patients to each cohort cleared and deemed safe. […] Tumor responses were assessed every 2 cycles using RECIST v1.1 criteria. […] The study also involves an ongoing dose escalation study where participants receive 100 mg, 200 mg, 300 mg, 400 mg, and 600 mg once daily (QD) dose levels.
Safety was assessed through the analysis of the reported incidence of treatment-emergent AEs. Treatment-emergent AEs are those with an onset on or after the initiation of therapy and will be graded according to NCI CTCAE Version 5.0. Other safety endpoints, including laboratory results, vital signs, and ECG findings, were summarized for all patients in the Safety set.

SMILES: O=C1CC[C@H](N2Cc3cc(N4CCN(CC5CCN(c6ccc([C@@H]7c8ccc(O)cc8OC[C@@H]7c7ccccc7)cc6F)CC5)CC4)ccc3C2=O)C(=O)N1 [compound (1-g), (S)-3-(5-(4-((1-(2-fluoro-4-((3S,4R)-7-hydroxy-3-phenylchroman-4-yl)phenyl)piperidin-4-yl)methyl)piperazin-1-yl)-1-oxoisoindolin-2-yl)piperidine-2,6-dione]
- TEAE: Urinary Tract Infection (200 mg QD (N = 12)): 1 (8.3) n (%)
- TEAE: Vaginal Haemorrhage (200 mg QD (N = 12)): 0 n (%)
- TEAE: Vomiting (200 mg QD (N = 12)): 1 (8.3) n (%)
- related TEAE: Alopecia (200 mg QD (N = 12)): 0 n (%)
- related TEAE: Arthralgia (200 mg QD (N = 12)): 1 (8.3) n (%)
- related TEAE: Constipation (200 mg QD (N = 12)): 0 n (%)
- related TEAE: Diarrhea (200 mg QD (N = 12)): 0 n (%)
- related TEAE: Dysgeusia (200 mg QD (N = 12)): 0 n (%)
- related TEAE: Eructation (200 mg QD (N = 12)): 0 n (%)
- related TEAE: Fatigue (200 mg QD (N = 12)): 1 (8.3) n (%)
- related TEAE: Flatulence (200 mg QD (N = 12)): 0 n (%)
- related TEAE: Hot Flush (200 mg QD (N = 12)): 1 (8.3) n (%)
- related TEAE: Hyperhidrosis (200 mg QD (N = 12)): 0 n (%)
- related TEAE: Nail Disorder (200 mg QD (N = 12)): 0 n (%)
- related TEAE: Nausea (200 mg QD (N = 12)): 0 n (%)
- related TEAE: Neutrophil Count Decreased (200 mg QD (N = 12)): 0 n (%)
- related TEAE: Platelet Count Decreased (200 mg QD (N = 12)): 0 n (%)
- related TEAE: Tremor (200 mg QD (N = 12)): 0 n (%)
- related TEAE: Vomiting (200 mg QD (N = 12)): 0 n (%)
- Patients with Any Compound (1-g) related TEAE (300 mg QD (N = 11)): 5 (45.5) n (%)
- Patients with Any TEAE (300 mg QD (N = 11)): 8 (72.7) n (%)
- TEAE: Abdominal Distension (300 mg QD (N = 11)): 1 (9.1) n (%)
- TEAE: Abdominal Pain (300 mg QD (N = 11)): 0 n (%)
- TEAE: Acute Kidney Injury (300 mg QD (N = 11)): 1 (9.1) n (%)
- TEAE: Adrenal Insufficiency (300 mg QD (N = 11)): 0 n (%)
- TEAE: Alopecia (300 mg QD (N = 11)): 0 n (%)
- TEAE: Anaemia (300 mg QD (N = 11)): 1 (9.1) n (%)
- TEAE: Anxiety (300 mg QD (N = 11)): 1 (9.1) n (%)
- TEAE: Arthralgia (300 mg QD (N = 11)): 0 n (%)
- TEAE: Axillary Vein Thrombosis (300 mg QD (N = 11)): 0 n (%)
- TEAE: Back Pain (300 mg QD (N = 11)): 1 (9.1) n (%)
- TEAE: Basal Cell Carcinoma (300 mg QD (N = 11)): 0 n (%)
- TEAE: Breast Pain (300 mg QD (N = 11)): 0 n (%)
- TEAE: Confusional State (300 mg QD (N = 11)): 0 n (%)
- TEAE: Constipation (300 mg QD (N = 11)): 1 (9.1) n (%)
- TEAE: Cough (300 mg QD (N = 11)): 0 n (%)
- TEAE: Covid-19 Pneumonia (300 mg QD (N = 11)): 0 n (%)
- TEAE: Dehydration (300 mg QD (N = 11)): 1 (9.1) n (%)
- TEAE: Diarrhoea (300 mg QD (N = 11)): 1 (9.1) n (%)
- TEAE: Dizziness (300 mg QD (N = 11)): 1 (9.1) n (%)
- TEAE: Dysgeusia (300 mg QD (N = 11)): 0 n (%)
- TEAE: Dyspepsia (300 mg QD (N = 11)): 0 n (%)
- TEAE: Dyspnoea (300 mg QD (N = 11)): 1 (9.1) n (%)
- TEAE: Dysuria (300 mg QD (N = 11)): 1 (9.1) n (%)
- TEAE: Eructation (300 mg QD (N = 11)): 0 n (%)
- TEAE: Fall (300 mg QD (N = 11)): 0 n (%)
- TEAE: Fatigue (300 mg QD (N = 11)): 1 (9.1) n (%)
- TEAE: Flatulence (300 mg QD (N = 11)): 1 (9.1) n (%)
- TEAE: Fracture (300 mg QD (N = 11)): 0 n (%)
- TEAE: Fungal Infection (300 mg QD (N = 11)): 1 (9.1) n (%)
- TEAE: Haematoma (300 mg QD (N = 11)): 1 (9.1) n (%)
- TEAE: Hot Flush (300 mg QD (N = 11)): 2 (18.2) n (%)
- TEAE: Hyperglycaemia (300 mg QD (N = 11)): 0 n (%)
- TEAE: Hyperhidrosis (300 mg QD (N = 11)): 0 n (%)
- TEAE: Hypokalaemia (300 mg QD (N = 11)): 1 (9.1) n (%)
- TEAE: Hypotension (300 mg QD (N = 11)): 0 n (%)
- TEAE: Influenza Like Illness (300 mg QD (N = 11)): 0 n (%)
- TEAE: Insomnia (300 mg QD (N = 11)): 0 n (%)
- TEAE: Lower Respiratory Tract Congestion (300 mg QD (N = 11)): 0 n (%)
- TEAE: Lymphocyte Count Decreased (300 mg QD (N = 11)): 0 n (%)
- TEAE: Muscle Spasm (300 mg QD (N = 11)): 0 n (%)
- TEAE: Muscular Weakness (300 mg QD (N = 11)): 0 n (%)
- TEAE: Musculoskeletal Stiffness (300 mg QD (N = 11)): 0 n (%)
- TEAE: Nail Disorder (300 mg QD (N = 11)): 0 n (%)
- TEAE: Nasal Congestion (300 mg QD (N = 11)): 0 n (%)
- TEAE: Nausea (300 mg QD (N = 11)): 4 (36.4) n (%)
- TEAE: Neutrophil Count Decreased (300 mg QD (N = 11)): 1 (9.1) n (%)
- TEAE: Oedema Peripheral (300 mg QD (N = 11)): 1 (9.1) n (%)
- TEAE: Ophthalmic Migraine (300 mg QD (N = 11)): 0 n (%)
- TEAE: Oral Pain (300 mg QD (N = 11)): 1 (9.1) n (%)
- TEAE: Pain In Extremity (300 mg QD (N = 11)): 0 n (%)
- TEAE: Pharyngitis (300 mg QD (N = 11)): 0 n (%)
- TEAE: Platelet Count Decreased (300 mg QD (N = 11)): 1 (9.1) n (%)
- TEAE: Pleural Effusion (300 mg QD (N = 11)): 1 (9.1) n (%)

— patent US20250381179A1, “CHROMAN-BASED COMPOUNDS FOR TREATING CANCER” (priority 2024, published 2025)
